Where a name gives a salt, the structure may show the parent alone.
Assays:
p38alpha = target: T1, p38alpha (Homo sapiens, UniProt Q16539); test: P38Alpha enzyme inhibition assay (Alphascreen kinase activity assay); assay type: biochemical; conditions: 100 pM p38alpha, 250 μM ATP, 2 hours pre-incubation at 25° C., read-out: p38α inhibition (IC50 values)
T1 construct: purchased Invitrogen PV3304
Method in brief: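 AlphaScreen read-out: after an EDTA stop, an anti-phospho-ATF2 antibody with Protein A acceptor and donor beads measured substrate phosphorylation. Compounds sat 2 h at 25°C with 100 pM p38α and 0.3 µg/ml ATF-2 fusion protein (pH 7.5, 1% DMSO) before 250 µM ATP was added for 1 h. IC50 from dose-response.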

[1] = tested on: LPS-stimulated TNFα release from PBMCs; test: LPS-stimulated PBMC TNFα release assay; assay type: cell-based; conditions: inhibition of TNFα release, human PBMCs, LPS 10 ng/ml, 18 h, ELISA, read-out: p38α inhibition (IC50 values)
Procedure: LPS-Stimulated PBMC TNFα Release Assay.
Peripheral Blood Mononuclear Cells (PBMCs) were isolated from healthy human volunteer blood using a standard density gradient centrifugation technique. Citrated blood was placed onto Histopaque™ and centrifuged. The PBMCs were removed from the density gradient interface and washed in phosphate buffered saline (PBS). The PBMCs were suspended in RPMI 1640 medium (without serum), dispensed into a 96-well plate and incubated at 37° C. for 3 h in a humidified incubator. After incubation, the medium was replaced (with medium containing 1% foetal bovine serum) and the plate incubated at 37° C., for 1 h, in the presence of test compound or the appropriate vehicle. LPS (10 ng/ml), or an appropriate vehicle control, was then added to the cells and the plate returned to the incubator for 18 h. Cell-free supernatants were removed and assayed for TNFα levels using an ELISA kit from R&D Systems.
A dose response curve to each test compound was performed and the effect of compound in each experiment was expressed as a percentage inhibition of the control TNFα release. Dose response curves were plotted and compound potency (IC50) was determined. Compounds were tested in at least three separate experiments.

T1 sequence (Q16539 whole entry): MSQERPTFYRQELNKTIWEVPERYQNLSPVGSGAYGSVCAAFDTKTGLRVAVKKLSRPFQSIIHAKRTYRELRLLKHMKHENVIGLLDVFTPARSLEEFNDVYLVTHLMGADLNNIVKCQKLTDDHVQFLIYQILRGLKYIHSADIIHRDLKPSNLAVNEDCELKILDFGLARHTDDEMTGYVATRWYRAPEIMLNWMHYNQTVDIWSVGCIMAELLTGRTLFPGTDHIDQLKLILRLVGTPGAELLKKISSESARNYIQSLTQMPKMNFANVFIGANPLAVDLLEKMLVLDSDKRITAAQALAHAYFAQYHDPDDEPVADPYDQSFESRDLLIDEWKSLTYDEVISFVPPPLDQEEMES

Row | SMILES | IC50 (p38alpha) [nM] | IC50 [1] [nM]
1 | Cc1ccc(-n2nc(C(C)(C)C)cc2NC(=O)N[C@H]2CC[C@@H](Oc3ccc4nnc([C@@H]5CCN(C)C5)n4c3)c3ccccc32)cc1 [Example 90, 1-(5-tert-Butyl-2-p-tolyl-2H-pyrazol-3-yl)-3-{(1S,4R)-4-[3-((R)-1-methyl-pyrrolidin-3-yl)-[1,2,4]triazolo[4,3-a]pyridin-6-yloxy]-1,2,3,4-tetrahydro-naphthalen-1-yl}-urea] | < 10 | < 10
2 | CC(C)(C)c1cc(NC(=O)N[C@H]2CC[C@@H](Oc3ccc4nnc(N5CCCCC5)n4c3)c3ccccc32)n(-c2ccc(C#N)cc2)n1 [Example 71, 1-[5-tert-Butyl-2-(4-cyano-phenyl)-2H-pyrazol-3-yl]-3-[(1S,4R)-4-(3-piperidin-1-yl-[1,2,4]triazolo[4,3-a]pyridin-6-yloxy)-1,2,3,4-tetrahydro-naphthalen-1-yl]-urea] | < 10 | < 10
3 | CC(C)(C)c1cc(NC(=O)N[C@H]2CC[C@@H](Oc3ccc4nnc(N5CCCCC5)n4c3)c3ccccc32)n(-c2cccc(CN3CCCCC3)c2)n1 [Example 44, 1-[5-tert-Butyl-2-(3-piperidin-1-ylmethyl-phenyl)-2H-pyrazol-3-yl]-3-[(1S,4R)-4-(3-piperidin-1-yl-[1,2,4]triazolo[4,3-a]pyridin-6-yloxy)-1,2,3,4-tetrahydro-naphthalen-1-yl]-urea] | < 10 | < 10
4 | CC(C)(C)c1cc(NC(=O)N[C@H]2CC[C@@H](Oc3ccc4nnc(N5CCCCC5)n4c3)c3ccccc32)n(-c2cccc(SCCO)c2)n1 [Example 53, 1-{5-tert-Butyl-2-[3-(2-hydroxy-ethylsulfanyl)-phenyl]-2H-pyrazol-3-yl}-3-[(1S,4R)-4-(3-piperidin-1-yl-[1,2,4]triazolo[4,3-a]pyridin-6-yloxy)-1,2,3,4-tetrahydro-naphthalen-1-yl]-urea] | < 10 | < 10
5 | Cc1ccc(-n2nc(C(C)(C)C)cc2NC(=O)N[C@H]2CC[C@@H](Oc3ccc4nnc(N5CCC(O)CC5)n4c3)c3ccccc32)cc1 [Example 24, 1-(5-tert-Butyl-2-p-tolyl-2H-pyrazol-3-yl)-3-[(1S,4R)-4-[3-(4-hydroxypiperidin-1-yl)-[1,2,4]triazolo[4,3-a]pyridine-6-yloxy]-1,2,3,4-tetrahydro-naphthalen-1-yl]-urea] | < 10 | < 10
6 | Cc1ccc(-n2nc(C(C)(C)C)cc2NC(=O)N[C@H]2CC[C@@H](Oc3ccc4nnc(N5CCCCCC5)n4c3)c3ccccc32)cc1 [Example 67, 1-[(1S,4R)-4-(3-Azepan-1-yl-[1,2,4]triazolo[4,3-a]pyridin-6-yloxy)-1,2,3,4-tetrahydro-naphthalen-1-yl]-3-(5-tert-butyl-2-p-tolyl-2H-pyrazol-3-yl)-urea] | < 10 | < 10
7 | Cc1ccc(-n2nc(C(C)(C)C)cc2NC(=O)N[C@H]2CC[C@@H](Oc3ccc4nnc(N(C)C)n4c3)c3ccccc32)cc1 [Example 59, 1-(5-tert-Butyl-2-p-tolyl-2H-pyrazol-3-yl)-3-[(1S,4R)-4-(3-dimethylamino-[1,2,4]triazolo[4,3-a]pyridin-6-yloxy)-1,2,3,4-tetrahydro-naphthalen-1-yl]-urea] | < 10 | < 10
8 | Cc1ccc(-n2nc(C(C)(C)C)cc2NC(=O)N[C@H]2CC[C@@H](Oc3ccc4nnc(NC(C)C)n4c3)c3ccccc32)cc1 [Example 8, 1-(5-tert-Butyl-2-p-tolyl-2H-pyrazol-3-yl)-3-[(1S,4R)-4-(3-isopropylamino-[1,2,4]triazolo[4,3-a]pyridin-6-yloxy)-1,2,3,4-tetrahydro-naphthalen-1-yl]-urea] | < 10 | < 10
9 | Cc1ccc(-n2nc(C(C)(C)C)cc2NC(=O)N[C@H]2CC[C@@H](Oc3ccc4nnc(C5CN(C)CCN5C)n4c3)c3ccccc32)cc1 (stereo partly drawn) [Example 86, 1-(5-tert-Butyl-2-p-tolyl-2H-pyrazol-3-yl)-3-{(1S,4R)-4-[3-(1,4-dimethyl-piperazin-2-yl)-[1,2,4]triazolo[4,3-a]pyridin-6-yloxy]-1,2,3,4-tetrahydro-naphthalen-1-yl}-urea formate salt] | < 10 | < 10
10 | Cc1ccc(-n2nc(C(C)(C)C)cc2NC(=O)N[C@H]2CC[C@@H](Oc3ccc4nnc([C@@H]5CCCN(C)C5)n4c3)c3ccccc32)cc1 [Example 89, 1-(5-tert-Butyl-2-p-tolyl-2H-pyrazol-3-yl)-3-{(1S,4R)-4-[3-((R)-1-methyl-piperidin-3-yl)-[1,2,4]triazolo[4,3-a]pyridin-6-yloxy]-1,2,3,4-tetrahydro-naphthalen-1-yl}-urea] | < 10 | < 10
11 | Cc1ccc(-n2nc(C(C)(C)C)cc2NC(=O)N[C@H]2CC[C@@H](Oc3ccc4nnc([C@@H]5CCCN5C(C)C)n4c3)c3ccccc32)cc1 [Example 58, 1-(5-tert-Butyl-2-p-tolyl-2H-pyrazol-3-yl)-3-{(1S,4R)-4-[3-((S)-1-isopropyl-pyrrolidin-2-yl)-[1,2,4]triazolo[4,3-a]pyridin-6-yloxy]-1,2,3,4-tetrahydro-naphthalen-1-yl}-urea] | < 10 | < 10

Further lines, with some results ahead:

Row | IC50 (p38alpha) [nM] | SMILES | IC50 [1] [nM]
12 | < 10 | Cc1ccc(-n2nc(C(C)(C)C)cc2NC(=O)N[C@H]2CC[C@@H](Oc3cc(C)c4nnc([C@@H]5CCCN5C)n4c3)c3ccccc32)cc1 [Example 105, 1-(5-tert-Butyl-2-p-tolyl-2H-pyrazol-3-yl)-3-{(1S,4R)-4-[8-methyl-3-((S)-1-methyl-pyrrolidin-2-yl)-[1,2,4]triazolo[4,3-a]pyridin-6-yloxy]-1,2,3,4-tetrahydro-naphthalen-1-yl}-urea] | < 10
13 | < 10 | CN1CCN(Cc2ccc(-n3nc(C(C)(C)C)cc3NC(=O)N[C@H]3CC[C@@H](Oc4ccc5nnc(N6CCCCC6)n5c4)c4ccccc43)cc2)CC1 [Example 106, 1-{5-tert-Butyl-2-[4-(4-methyl-piperazin-1-ylmethyl)-phenyl]-2H-pyrazol-3-yl}-3-[(1S,4R)-4-(3-piperidin-1-yl-[1,2,4]triazolo[4,3-a]pyridin-6-yloxy)-1,2,3,4-tetrahydro-naphthalen-1-yl]-urea] | < 10
14 | < 10 | C[C@H]1CCCCN1c1nnc2ccc(O[C@@H]3CC[C@H](NC(=O)Nc4cc(C(C)(C)C)nn4C)c4ccccc43)cn12 [Example 126, 1-(5-tert-Butyl-2-methyl-2H-pyrazol-3-yl)-3-{(1S,4R)-4-[3-((S)-2-methyl-piperidin-1-yl)-[1,2,4]triazolo[4,3-a]pyridin-6-yloxy]-1,2,3,4-tetrahydronaphthalen-1-yl]-urea] | < 10
15 | < 10 | C[C@H]1CCCCN1c1nnc2ccc(O[C@@H]3CC[C@H](NC(=O)Nc4cc(C(C)(C)C)nn4CCO)c4ccccc43)cn12 [Example 110, 1-[5-tert-Butyl-2-(2-hydroxy-ethyl)-2H-pyrazol-3-yl]-3-{(1S,4R)-4-[3-((S)-2-methyl-piperidin-1-yl)-[1,2,4]triazolo[4,3-a]pyridin-6-yloxy]-1,2,3,4-tetrahydro-naphthalen-1-yl}-urea] | < 10
16 | < 10 | Cc1ccc(-n2nc(C(C)(C)C)cc2NC(=O)N[C@H]2CC[C@@H](Oc3ccc4nnc(N5CCCCC5)n4c3)c3ccccc32)cn1 [Example 102, 1-[5-tert-Butyl-2-(6-methyl-pyridin-3-yl)-2H-pyrazol-3-yl]-3-[(1S,4R)-4-(3-piperidin-1-yl-[1,2,4]triazolo[4,3-a]pyridin-6-yloxy)-1,2,3,4-tetrahydro-naphthalen-1-yl]-urea] | < 10
17 | < 10 | Cc1ccc(-n2nc(C(C)(C)C)cc2NC(=O)N[C@H]2CC[C@@H](Oc3ccc4nnc(N)n4c3)c3ccccc32)cc1 [Example 101, 1-[(1S,4R)-4-(3-Amino-[1,2,4]triazolo[4,3-a]pyridin-6-yloxy)-1,2,3,4-tetrahydro-naphthalen-1-yl]-3-(5-tert-butyl-2-p-tolyl-2H-pyrazol-3-yl)-urea] | < 10
18 | < 10 | Cc1ccc(-n2nc(C(C)(C)C)cc2NC(=O)N[C@H]2CC[C@@H](Oc3ccc4nnc(N5CC[C@H](CO)C5)n4c3)c3ccccc32)cc1 [Example 92, 1-(5-tert-Butyl-2-p-tolyl-2H-pyrazol-3-yl)-3-{(1S,4R)-4-[3-((S)-3-hydroxymethyl-pyrrolidin-1-yl)-[1,2,4]triazolo[4,3-a]pyridin-6-yloxy]-1,2,3,4-tetrahydro-naphthalen-1-yl}-urea] | < 10
19 | < 10 | C[C@@H]1CCC[C@H](C)N1c1nnc2ccc(O[C@@H]3CC[C@H](NC(=O)Nc4cc(C(C)(C)C)nn4CCO)c4ccccc43)cn12 [Example 118, 1-[5-tert-Butyl-2-(2-hydroxy-ethyl)-2H-pyrazol-3-yl]-3-{(1S,4R)-4-[3-((2S,6R)-2,6-dimethyl-piperidin-1-yl)-[1,2,4]triazolo[4,3-a]pyridin-6-yloxy]-1,2,3,4-tetrahydro-naphthalen-1-yl}-urea] | < 10
20 | < 10 | C[C@H]1CCCCN1c1nnc2ccc(O[C@@H]3CC[C@H](NC(=O)Nc4cc(C(C)(C)C)nn4-c4cccc(OCCN(C)C)c4)c4ccccc43)cn12 [Example 95] | < 10

— US9315503B2, “Kinase inhibitors” (CHIESI FARMACEUTICI S.p.A., priority 2011, dated 2016)
